# From patent US10757944B2, “Ozone treatment for elimination of pathogens” (priority 2016, dated 2020)
# Values joined by “and” are separate entries in the source; they are usually repeats but may differ in a detail not shown here. Equal values may be shown once.
# Assays:
# Assay type in all cases: cell-based
# Escherichia Coli = experiment: Gaseous ozone treatment of Cannabis inoculated with E. Coli, microbial count
# Procedure: (§1) Cannabis plants were individually contaminated with Escherichia Coli, Salmonella enterica sv typhimurium, Listeria monocytogenes and Candida albicans then exposed to gaseous ozone for 20 minutes at 100 ppm and 200 ppm.
# Pure cultures of Escherichia coli and Listeria monocytogenes provided by the American Type Culture Collection (ATCC) were grown in selective media broths. The Candida albicans provided by ATCC was grown on potato dextrose agar, and after significant growth was achieved, the colonies were transferred and suspended in Butterfield's buffer. After significant turbidity in each broth of pathogens was observed, they, along with Butterfield's buffer with the suspended Candida albicans, were used to inoculate individual Cannabis samples. […]
# Three samples for each organism were tested at each of the concentrations. […] All samples were then analyzed for their microbial counts by first generating serial dilution using Butterfield's buffer as the diluent for each sample then individually plating the resultant dilutions onto selective media appropriate for the organism being analyzed. After the required incubation temperatures and times were completed, the organisms on the plates were counted. For each set of dilutions of a given sample and starting at the plate representing the lowest dilution ratio, the first plate that was countable was counted and the result was recorded. […]
# [1] = system: Salmonella enterica sv typhimurium; experiment: Gaseous ozone treatment of Cannabis inoculated with Salmonella, microbial count; settings: for kill of bacterial pathogen (in words): 20 minutes; for Microbial Count: 20 min
# Procedure: as §1
# (§2) Pure cultures of Escherichia coli and Listeria monocytogenes provided by the American Type Culture Collection (ATCC) were grown in selective media broths. The Candida albicans provided by ATCC was grown on potato dextrose agar, and after significant growth was achieved, the colonies were transferred and suspended in Butterfield's buffer. After significant turbidity in each broth of pathogens was observed, they, along with Butterfield's buffer with the suspended Candida albicans, were used to inoculate individual Cannabis samples. This process created four individual populations of Cannabis with each population being contaminated with one of the four organisms grown. After inoculating the samples they were allowed to dry overnight by placing them out in the open at room temperature. Each population of Cannabis was then divided into smaller individual 2-4 gram samples which were used in the tests. One test consisted of placing nearly half of the smaller samples into an ozone gas chamber for 20 minutes at an approximate ozone concentration of 100 ppm. The remaining samples were set aside to be used as controls.
# (§3) Three samples for each organism were tested at each of the concentrations. The control samples were placed into the same chamber for 20 minutes with an ozone concentration of 0 ppm. All samples were then analyzed for their microbial counts by first generating serial dilution using Butterfield's buffer as the diluent for each sample then individually plating the resultant dilutions onto selective media appropriate for the organism being analyzed. After the required incubation temperatures and times were completed, the organisms on the plates were counted. For each set of dilutions of a given sample and starting at the plate representing the lowest dilution ratio, the first plate that was countable was counted and the result was recorded.
# (§4) Testing occurred over two days. The first day involved testing one sample of Cannabis for each organism at an ozone concentration of 100 ppm and another test of only Listeria at 50 ppm. Additional testing involving subsequent trials for each organism at ozone concentrations of 100 ppm and 200 ppm were conducted on the second day of testing.
# (§5) The ozone concentration in the ozone chamber was kept at a range approximating the desired 100 ppm and 200 ppm concentrations. For instance, when the desired concentration was 100 ppm, the actual range of concentrations was 98 ppm to 106 ppm, and when the desired concentration was 200 ppm, the actual range of concentration was 198 ppm to 204 ppm. […]
# Listeria monocytogenes = experiment: Gaseous ozone treatment of Cannabis inoculated with Listeria, microbial count; settings: for kill of bacterial pathogen (in words): 20 minutes
# Procedure: as §1, §2, §3, §4
# The ozone concentration in the ozone chamber was kept at a range approximating the desired 100 ppm and 200 ppm concentrations. For instance, when the desired concentration was 100 ppm, the actual range of concentrations was 98 ppm to 106 ppm, and when the desired concentration was 200 ppm, the actual range of concentration was 198 ppm to 204 ppm. While the samples were being placed into the chamber ozone gas was lost.
# Candida albicans = experiment: Gaseous ozone treatment of Cannabis inoculated with Candida, microbial count; settings: for Microbial Count: 20 min
# Procedure: as §1, §2, §3, §4, §5
# [2] = system: Escherichia Coli, Salmonella enterica sv typhimurium, Listeria monocytogenes and Candida albicans; experiment: Gaseous ozone treatment of inoculated Cannabis, summary statements for all organisms
# Procedure: as §1, §2
# as §3, with “recorded. […]” for “recorded.”
# mold and yeast = experiment: Additional ozone exposure tests on cannabis flower or trim, mold and yeast CFU; settings: ozone 200 ppm
# Procedure: Some additional ozone exposure tests were performed with cannabis flower or trim on a variety of commercially available strains using an embodiment of a disclosed pathogen reduction device. In each experiment (disclosed in Table 6) a reduction of mold and yeast CFU/g was measured (as disclosed above using 3M® Petrifilm® Rapid Yeast and Mold Count Plate and Product Instruction) after treating different weights of cannabis with an ozone concentration of 200 ppm for between 20 and 60 minutes.
# CFUs on cannabis flower = experiment: Exposure of cannabis flower to 200 ppm ozone, CFU reduction; settings: between about 20 minutes and 90 minutes
# [3] = 100 ppm ozone, compared with 200 ppm
smiles,measurement,setting,value
O=[O+][O-] [ozone],kill of Escherichia coli (in words),"Escherichia Coli; both 100 ppm and 200 ppm ozone, 20 minutes",significantly vulnerable
same,Microbial Count,"Escherichia Coli; first day, target ozone 100 ppm (actual 95-102 ppm), 20 min, control (0 ppm) 1.2 * 10^11",2.8 * 10^10 cfu/g
same,kill of bacterial pathogen (in words),[1]; [3],lesser kill rate
same,kill of bacterial pathogen (in words),[1]; 200 ppm ozone,Significant kills
same,Microbial Count,"[1]; first day, target ozone 100 ppm (actual 95-102 ppm), control (0 ppm) 1.1 * 10^11",1.7 * 10^10 cfu/g
same,Microbial Count,"[1]; second day, ozone 100 ppm (98-106 ppm), Trials 2-3, control 4.5 * 10^4",1.1 * 10^4 cfu/g and 1.3 * 10^4 cfu/g
same,difference between the control and the treated sample (in words),"Listeria monocytogenes; 50 ppm ozone, 20 min, first day",no statistically significant difference
same,kill of bacterial pathogen (in words),Listeria monocytogenes; [3],lesser kill rate
same,kill of bacterial pathogen (in words),Listeria monocytogenes; 200 ppm ozone,Significant kills
same,Microbial Count,"Listeria monocytogenes; first day, target ozone 50 ppm (actual 46-52 ppm), 20 min, control (0 ppm) 7.0 * 10^2",2.6 * 10^2 cfu/g
same,Microbial Count,"Listeria monocytogenes; first day, target ozone 100 ppm (actual 95-102 ppm), 20 min, control (0 ppm) 1.9 * 10^7",4.8 * 10^5 cfu/g
same,Microbial Count,"Listeria monocytogenes; second day, ozone 100 ppm (98-106 ppm), 20 min, Trials 2-3, control 2.0 * 10^4",2.0 * 10^3 cfu/g and 1.0 * 10^3 cfu/g
same,effect of ozone treatment on Candida albicans (in words),"Candida albicans; 100 ppm and 200 ppm ozone, 20 minutes",limited
same,microbial count of 200 ppm trials compared with the control group (in words),"Candida albicans; 200 ppm ozone, 20 minutes, FIG. 10",average reduced microbial count
same,Microbial Count,"Candida albicans; listed as 'Mold Treated', first day, target ozone 100 ppm (actual 95-102 ppm), Mold Control (0 ppm) 1.4 * 10^12",1.9 * 10^11 cfu/g
same,Microbial Count,"Candida albicans; second day, ozone 100 ppm (98-106 ppm), Trials 2-3, control 5.0 * 10^5",2.7 * 10^5 cfu/g and 1.5 * 10^4 cfu/g
same,kill of all of the organisms involved in the test (in words),"[2]; 100 ppm ozone, first day (Table 1)",significant kill
same,kill of all organisms compared to the controls (in words),"[2]; 100 ppm ozone, second day (Table 2)",significant kill
same,kills at 200 ppm compared to the kills at 100 ppm (in words),"[2]; 200 ppm ozone, second day (Table 2)",amount of kills increased
same,Ending CFU,"mold and yeast; Flower, Hybrid, 5 lbs, 60:00 min, Initial CFU 77,000",4500 CFU
same,Ending CFU,"mold and yeast; Flower, Hybrid/Indica, 1 lb, 45:00 min, Initial CFU 2,200",220 CFU
same,Ending CFU,"mold and yeast; Flower, Hybrid/Indica, 6 lbs, 25:00 min, Initial CFU 51,750","30,000-32,000 CFU"
same,Ending CFU,"mold and yeast; Flower, Hybrid/Indica, weight NA, 60:00 min, Initial CFU 110,000","3,000 CFU"
same,Ending CFU,"mold and yeast; Flower, Hybrid/Sativa, 1 lb, 20:00 min, Initial CFU 100,000","5,400-5,500 CFU"
same,Ending CFU,"mold and yeast; Flower, Indica, 3 lbs, 60:00 min, Initial CFU 320,000","91,000 CFU"
same,Ending CFU,"mold and yeast; Trim, Hybrid/Indica, 6 lbs, 25:00 min, Initial CFU 17,000","800-11,000 CFU"
same,Ending CFU,"mold and yeast; Trim, Hybrid/Sativa, 3 lbs, 60:00 min, Initial CFU 50,000","3,000 CFU"
same,reduction of CFUs,CFUs on cannabis flower,"100,000 to 150,000 CFUs per hour"
